Experimental data published in patent publication US8604009B2, “(20S)-2-methylene-19-nor-22-dimethyl-1α,25-dihydroxyvitamin D3 and (20R)-2-methylene-19-nor-22-dimethyl-1α,25-hydroxyvitamin D3” (Wisconsin Alumni Research Foundation, priority 2010, dated 2013).
Entries after “also recorded” stand apart in the source; their conditions may differ. Read-outs that look alike come from different tables or passages of the source.

Tests used:
[1] = molecular target: T1, full-length recombinant rat vitamin D receptor (Rattus norvegicus, UniProt P13053); conditions: data from U.S. Pat. No. 5,843,928 and J. Med. Chem. 1998, 41, 4662; read-out: Competitive VDR Binding (Ki); cited from earlier work
T1 construct: Full-length recombinant rat receptor was expressed in E. coli BL21(DE3) Codon Plus RIL cells; histidine tag (C); made in house; host or cells: E. coli BL21(DE3) Codon Plus RIL
T1 sequence (P13053 1-423): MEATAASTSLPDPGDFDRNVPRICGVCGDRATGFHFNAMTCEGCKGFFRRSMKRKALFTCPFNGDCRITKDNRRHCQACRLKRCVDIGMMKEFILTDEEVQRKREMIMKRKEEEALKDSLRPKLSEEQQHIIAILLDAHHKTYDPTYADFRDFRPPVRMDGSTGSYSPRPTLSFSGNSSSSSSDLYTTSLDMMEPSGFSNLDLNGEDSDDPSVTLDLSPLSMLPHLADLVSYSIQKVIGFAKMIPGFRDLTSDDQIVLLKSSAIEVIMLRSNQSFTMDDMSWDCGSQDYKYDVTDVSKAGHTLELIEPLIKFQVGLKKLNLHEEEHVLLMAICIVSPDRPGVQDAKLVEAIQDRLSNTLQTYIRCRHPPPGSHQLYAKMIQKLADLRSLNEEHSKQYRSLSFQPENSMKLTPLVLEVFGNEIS

[2] = molecular target: T1, full-length recombinant rat vitamin D receptor; test: Competitive vitamin D receptor binding; conditions: for binding to the nuclear vitamin D receptor compared with 1,25(OH)2D3: in words
Method: The first system was a nickel affinity resin that utilizes the C-terminal histidine tag on this protein. The protein that was eluted from this resin was further purified using ion exchange chromatography (S-Sepharose Fast Flow). Aliquots of the purified protein were quick frozen in liquid nitrogen and stored at −80° C. until use. For use in binding assays, the protein was diluted in TEDK50 (50 mM Tris, 1.5 mM EDTA, pH 7.4, 5 mM DTT, 150 mM KCl) with 0.1% Chaps detergent. The receptor protein and ligand concentration was optimized such that no more than 20% of the added radiolabeled ligand was bound to the receptor.
Radiolabeled and unlabeled ligands were added to 100 μL of the diluted protein at a final ethanol concentration of ≦10%, mixed and incubated overnight on ice to reach binding equilibrium. The following day, 100 μL of hydroxylapatite slurry (50%) was added to each tube and mixed at 10-minute intervals for 30 minutes. The hydroxylapaptite was collected by centrifugation and then washed three times with Tris-EDTA buffer (50 mM Tris, 1.5 mM EDTA, pH 7.4) containing 0.5% Titron X-100. After the final wash, the pellets were transferred to scintillation vials containing 4 mL of Biosafe II scintillation cocktail, mixed and placed in a scintillation counter. Total binding was determined from the tubes containing only radiolabeled ligand.

HL-60 cells = test: HL-60 differentiation (nitro blue tetrazolium reduction); format: cell-based, human
Method: The study drugs were dissolved in ethanol and the concentrations determined using UV spectrophotometry. Serial dilutions were prepared so that a range of drug concentrations could be tested without changing the final concentration of ethanol (≦0.2%) present in the cell cultures.
Human promyelocytic leukemia (HL60) cells were grown in RPMI-1640 medium containing 10% fetal bovine serum. The cells were incubated at 37° C. in the presence of 5% CO2.
HL60 cells were plated at 1.2×10^5 cells/mL. Eighteen hours after plating, cells in duplicate were treated with drug. Four days later, the cells were harvested and a nitro blue tetrazolium reduction assay was performed (Collins et al., J. Exp. Med. (1979) 149:969-974). The percentage of differentiated cells was determined by counting a total of 200 cells and recording the number that contained intracellular black-blue formazan deposits.

[3] = tested on: 24-hydroxylase (24-OHase) gene promoter in ROS 17/2.8 (bone) cells; test: In vitro transcription assay (24-hydroxylase promoter luciferase reporter); format: cell-based
Method: Transcription activity was measured in ROS 17/2.8 (bone) cells that were stably transfected with a 24-hydroxylase (24-Ohase) gene promoter upstream of a luciferase reporter gene (Arbour et al., Analytical Biochem. (1998) 255(1):148-154). Cells were given a range of doses. Sixteen hours after dosing the cells were harvested and luciferase activities were measured using a luminometer. RLU=relative luciferase units.

[4] = tested on: bone calcium mobilization; test: Bone calcium mobilization (serum calcium); format: in vivo, rat; conditions: at 780 pM dosage
Method: (§1) Male, weanling Sprague-Dawley rats were placed on Diet 11 (0.47% Ca) diet+AEK oil for one week followed by Diet 11 (0.02% Ca)+AEK oil for 3 weeks. The rats were then switched to a diet containing 0.47% Ca for one week followed by two weeks on a diet containing 0.02% Ca. Dose administration began during the last week on 0.02% calcium diet. Four consecutive intraperitoneal doses were given approximately 24 hours apart. Twenty-four hours after the last dose, blood was collected from the severed neck and the concentration of serum calcium determined as a measure of bone calcium mobilization. The first 10 cm of the intestine was also collected for intestinal calcium transport analysis using the everted gut sac method.

[5] = tested on: intestinal calcium transport; test: Intestinal calcium transport (everted gut sac); format: in vivo, rat; conditions: for Net Intestinal Ca2+ Transport (S/M): S/M = serosal Ca2+/mucosal Ca2+, at 780 pM dosage; for intestinal calcium transport activity compared with 1,25(OH)2D3: rat gut, in words
Method: as §1

[6] = competition with 3H-1,25(OH)2D3, read-out: Ki, binding to the recombinant vitamin D receptor

Compound: C=C1C(O)CC(=CC=C2CCCC3(C)C2CCC3C(C)CCCC(C)(C)O)CC1O [2MD (20S), 2-methylene-19-nor-1α,25-dihydroxyvitamin D3]
- Ki [1]: 0.1 nM

Compound: C=C1C(O)CC(=CC=C2CCCC3(C)C2CCC3C(C)C(C)(C)CCC(C)(C)O)CC1O [MET-1, (20S)-2-methylene-19-nor-22-dimethyl-1α,25-dihydroxyvitamin D3]
- Ki [2, 6]: 0.04 nM
- binding to the nuclear vitamin D receptor compared with 1,25(OH)2D3 [2]: approximately equally effective as 1,25-(OH)2D3; also recorded: same affinity as 1,25(OH)2D3
- EC50 (HL-60 cells; Homo sapiens, HL-60, 96 h, HL-60 cells, 4 days, read-out: concentration inducing the differentiation of HL-60 cells in culture): 0.7 nM
- EC50 (HL-60 cells; present compounds, read-out: HL-60 Differentiation (EC50)): 0.7 nM
- EC50 ([3]; 16 h, ROS 17/2.8 cells, 16 hours, read-out: concentration stimulating 24-OHase gene expression in bone cells): 0.03 nM
- Net Bone Ca2+ Mobilization [4]: 0.4 mg/dL
- Net Intestinal Ca2+ Transport (S/M) [5]: 2.3 S/M
- intestinal calcium transport activity compared with 1,25(OH)2D3 [5]: noticeably less active than 1,25-(OH)2D3; also recorded: less potent than 1,25(OH)2D3

Compound: C=C1C(O)CC(=CC=C2CCCC3(C)C2CCC3C(C)C(C)(C)CCC(C)(C)O)CC1O [MET-2, (20R)-2-methylene-19-nor-22-dimethyl-1α,25-dihydroxyvitamin D3]
- Ki [2, 6]: 0.05 nM
- binding to the nuclear vitamin D receptor compared with 1,25(OH)2D3 [2]: equally effective as 1,25-(OH)2D3; also recorded: same affinity as 1,25(OH)2D3
- Ki ([2]; present compounds, read-out: Competitive VDR Binding (Ki)): 0.05 nM
- EC50 (HL-60 cells; HL-60 cells, 4 days, read-out: concentration inducing the differentiation of HL-60 cells in culture): 0.7 nM
- EC50 (HL-60 cells; Homo sapiens, HL-60, present compounds, read-out: HL-60 Differentiation (EC50)): 1 nM
- EC50 ([3]; ROS 17/2.8 cells, 16 hours, read-out: concentration stimulating 24-OHase gene expression in bone cells): 0.03 nM
- EC50 ([3]; present compounds, read-out: 24-OHase Transcription (EC50)): 0.6 nM
- potency in 24-hydroxylase gene transcription, times more potent than 1,25(OH)2D3 ([3]; relative to 1,25(OH)2D3): about three
- potency in stimulating 24-OHase gene expression, times less potent than 1,25(OH)2D3 ([3]; relative to 1,25(OH)2D3): about 3 times
- Net Bone Ca2+ Mobilization [4]: 0.2 mg/dL
- Net Intestinal Ca2+ Transport (S/M) [5]: 1.2 S/M
- intestinal calcium transport activity compared with 1,25(OH)2D3 [5]: noticeably less active than 1,25-(OH)2D3; also recorded: less potent than 1,25(OH)2D3
- melting point: 154 °C

Compound: C=C1C(O)CC(=CC=C2CCCC3(C)C2CCC3C(C)CCCC(C)(C)O)CC1O [2MD (20R)]
- Ki [1]: 0.12 nM
